Measurements as given in patent US20250346782A1 (W. L. Gore & Associates, Inc., priority 2022, published 2025).

What was measured:
[1] = Nitric oxide (NO) release, Berkeley nitric oxide test strips (Evaluation Method Ai); assay type: physicochemical; details: 37° C.; for onset of release of NO from the coating / time at which steady state of NO release / nitrite anion concentration is reached: coating of compound alone on ePTFE film, PBS 10 mM with 100 μM EDTA; for delayed release of NO from the coating / time at which steady state concentration of nitrite anion is reached: coating with VDF-HFP fluoropolymer on ePTFE film, PBS
Procedure: The ability of a chemical entity as described herein, or surface having a coating comprising a chemical entity as described herein, to release nitric oxide (NO) is assessed using commercially available Berkely nitric oxide test strips (“Berkeley Life Nitric Oxide Saliva Test Strips”). Instructions for use for such test strips are provided with the packaging of the Berkely nitric oxide test strips, and additionally are described in WO2013/023217A1 and WO2014/039794A2 (incorporated herein by reference).The test strips provide a semi-quantitative measure of NO-derived analytes (primarily aqueous nitrite anion) rather than NO itself, because as is known to the art (Ignarro et al., 1993), aqueous NO has a very short half-life of only seconds, whereas aqueous nitrite anion (which derives from aqueous NO) has a half-life of several hours. As such, the nitrite anion is an appropriate surrogate to measure aqueous NO concentrations. The test strips comprise a nitrite detection pad containing dry chemical reagents responsive to different nitric oxide analytes, thereby, indicating concentrations of nitric oxide. The test strips are capable of detecting a concentration range of the nitric oxide analyte from 0 to 400 μmol/L nitrite with visibly distinct intensities of colorimetric sub-ranges expressed as a red colour (i.e., approximately 700 nm wavelength) of increasing intensity, qualitatively corresponding to micromolarity, specifically, but not limited to: 0 μM, 1 μM to 25 μM, 25 μM to 100 μM, 100 μM to 200 μM, 200 μM to 350 μM, and greater than 400 μM nitrite.
The surface having a coating to be assessed is submerged in a test solution of PBS, 10.0 mM, pH 7.4, with 100 μM EDTA. NO concentration is assessed at given timepoints by dipping the test strip in the solution. After 5 seconds, the test strip is removed, the strip is folded over and the sample pad is gently pressed against the test pad and held for 10 seconds. The ends are separated and compared to the Berkeley Test Nitric Oxide Scale, where the visibly distinct colorimetric sub-ranges comprise 6 subjective levels of intensity of red wavelengths (i.e., approximately 700 nm wavelength), corresponding to 0 μM, 25 μM, 100 μM, 200 μM, 350 μM, and 400 μM of nitric oxide-derived analytes, depending upon the qualitative intensity of red subjectively observed by a user. […] As shown in the Examples below, because each strip is assigned to one of the 6 subjective intensity levels (the sixth being no response), the resulting NO release plot has discrete jumps rather than a continuous curve, although in practice continuous release is expected to be occurring.
In separate experiments, chloroform solutions of S-nitrosothiol-containing compound 16 (Example 19) and compound 17 (Example 20) were deposited dropwise onto ePTFE films secured on embroidery hoops, allowing the solvents to evaporate as the solutions were deposited. Once the solvents had evaporated and the resulting coatings were dry, 10 mL of a PBS buffer solution comprising 10 mM phosphate buffered saline with 100 μM EDTA, was poured over the individual coated films in round, polyethylene containers with screw-cap lids and placed in a 37° C. water bath. The PBS buffer solutions were tested periodically for NO release according to Evaluation Method Ai. The NO release profile for the film coated with compound 16 is shown in FIG. 4, and for the film coated with compound 17, in FIG. 5.
In separate experiments, acetone solutions of 50 mg of the S-nitrosothiol-containing compound 16 (Example 19), compound 18 (Example 22), and copolymer 20 (Example 23) were added to individual mixtures of 200 mg of VDF-HFP fluoropolymer in 10 mL of acetone. The green mixtures were then poured onto 3-inch disks of ePTFE films secured on embroidery hoops, and the solvents evaporated under a stream of argon. […]

[2] = as above; assay type: physicochemical; details: PBS, 37° C.
[3] = Example 30, FIG. 12: silicone coating on ePTFE film
[4] = coating with VDF-HFP fluoropolymer on Pebax nylon film
[5] = coating with VDF-HFP fluoropolymer on ePE film
[6] = coating with VDF-HFP fluoropolymer on stainless steel foil

Structure (SMILES) | onset of release of NO from the coating [1] | time at which steady state of NO release / nitrite anion concentration is reached [1] [days] | delayed release of NO from the coating [1] [days] | time at which steady state concentration of nitrite anion is reached [1] [days] | onset of release of NO from the coating [2, 3] | time at which steady state concentration of nitrite anion is reached [2, 3] [days] | delayed release of NO from the coating [2, 4] [days] | time at which steady state concentration of nitrite anion is reached [2, 4] [days] | delayed release of NO from the coating [2, 5] [days] | time at which steady state concentration of nitrite anion is reached [2, 5] [days] | delayed release of NO from the coating [2, 6] [days] | time at which steady state concentration of nitrite anion is reached [2, 6] [days]
CC(C)(SN=O)C(NC(=O)CCCCC(=O)NC(C(=O)NCc1ccccc1)C(C)(C)SN=O)C(=O)NCc1ccccc1 (stereo not shown) [Compound 16] | immediate release | 5 | 2 | 8 | – | – | – | – | – | – | – | –
CC(C)(SN=O)C(NC(=O)CCCCC(=O)NC(C(=O)Nc1ccccc1)C(C)(C)SN=O)C(=O)Nc1ccccc1 (stereo not shown) [Compound 17, S,S′-((adipoylbis(azanediyl))bis(2-methyl-4-oxo-4-(phenylamino)butane-3,2-diyl)) dinitrothioite] | immediate release | 7 | – | – | – | – | – | – | – | – | – | –
CC(C)(SN=O)C(NC(=O)c1cc(C(=O)NC(C(=O)NCc2ccccc2)C(C)(C)SN=O)cc(C(=O)NC(C(=O)NCc2ccccc2)C(C)(C)SN=O)c1)C(=O)NCc1ccccc1 (stereo not shown) [Compound 18, S,S′,S″-(((benzene-1,3,5-tricarbonyl)tris(azanediyl))tris(4-(benzylamino)-2-methyl-4-oxobutane-3,2-diyl)) trinitrothioite] | – | – | 2 | 12 | immediate first release | 7 | 4 | 13 | 2 | 15 | 9 | 14
